Results on three molecules are retold here after ChEMBL document CHEMBL2073871, “Human P-glycoprotein transports cortisol, aldosterone, and dexamethasone, but not progesterone” (J Biol Chem, 1992).

In data set [1] the target is T1, ATP-dependent translocase ABCB1 (Homo sapiens, UniProt P08183). The data set can be described thus: TP_TRANSPORTER: transepithelial transport (basal to apical) in MDR1-expressing LLC-PK1 cells. Conditions: pig. It is filed as functional, cell-based.
Data set [2] addresses T1, ATP-dependent translocase ABCB1. The data set can be described thus: TP_TRANSPORTER: inhibition of Cortisol transepithelial transport (basal to apical) (Cortisol: 0.011? uM, Progesterone: 50 uM) in MDR1-expressing LLC-PK1 cells. It is filed as functional, cell-based. The conditions noted are these: pig, llc-pk1, 50 µM.

SMILES strings stand for the structures.

T1 sequence (P08183 whole entry): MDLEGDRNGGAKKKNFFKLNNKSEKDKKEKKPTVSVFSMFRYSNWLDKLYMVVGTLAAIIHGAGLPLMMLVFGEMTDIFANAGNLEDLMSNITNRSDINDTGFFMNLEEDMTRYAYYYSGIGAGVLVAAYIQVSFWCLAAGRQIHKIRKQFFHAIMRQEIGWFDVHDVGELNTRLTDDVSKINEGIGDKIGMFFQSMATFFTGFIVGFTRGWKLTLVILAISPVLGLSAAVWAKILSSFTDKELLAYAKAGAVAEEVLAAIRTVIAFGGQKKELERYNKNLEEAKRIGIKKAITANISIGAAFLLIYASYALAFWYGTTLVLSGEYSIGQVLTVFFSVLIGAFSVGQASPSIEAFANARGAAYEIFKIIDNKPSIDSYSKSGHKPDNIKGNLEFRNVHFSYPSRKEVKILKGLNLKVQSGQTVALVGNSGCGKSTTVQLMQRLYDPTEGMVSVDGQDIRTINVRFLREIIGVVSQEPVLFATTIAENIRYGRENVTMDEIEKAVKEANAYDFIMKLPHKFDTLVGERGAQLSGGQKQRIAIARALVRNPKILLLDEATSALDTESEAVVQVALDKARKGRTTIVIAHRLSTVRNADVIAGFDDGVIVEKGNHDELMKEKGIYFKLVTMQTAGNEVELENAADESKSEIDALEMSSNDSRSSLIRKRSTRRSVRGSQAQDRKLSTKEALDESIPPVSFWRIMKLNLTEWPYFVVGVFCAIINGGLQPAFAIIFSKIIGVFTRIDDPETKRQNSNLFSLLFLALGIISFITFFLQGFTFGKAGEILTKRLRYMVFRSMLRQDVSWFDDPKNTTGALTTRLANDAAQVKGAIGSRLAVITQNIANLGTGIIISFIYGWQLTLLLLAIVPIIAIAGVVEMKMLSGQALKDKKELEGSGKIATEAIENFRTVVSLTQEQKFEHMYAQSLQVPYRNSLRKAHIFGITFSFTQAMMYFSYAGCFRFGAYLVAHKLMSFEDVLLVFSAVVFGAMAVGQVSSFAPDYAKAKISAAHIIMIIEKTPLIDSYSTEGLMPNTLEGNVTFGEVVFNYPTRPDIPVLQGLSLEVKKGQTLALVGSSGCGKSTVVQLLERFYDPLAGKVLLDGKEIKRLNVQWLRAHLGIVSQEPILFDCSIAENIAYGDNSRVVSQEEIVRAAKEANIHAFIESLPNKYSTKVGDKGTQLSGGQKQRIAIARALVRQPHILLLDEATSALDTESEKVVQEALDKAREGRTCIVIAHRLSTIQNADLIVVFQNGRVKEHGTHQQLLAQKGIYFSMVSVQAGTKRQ

As for `C[C@]12CCC(=O)C=C1CC[C@@H]1[C@@H]2[C@@H](O)C[C@]2(C=O)[C@@H](C(=O)CO)CC[C@@H]12` [ALDOSTERONE], the Activity result in data set [1] is “substrate [+]”.
For `CC(=O)[C@H]1CC[C@H]2[C@@H]3CCC4=CC(=O)CC[C@]4(C)[C@H]3CC[C@]12C` [PROGESTERONE], the Activity entry in data set [2] was “inhibitor [+]”; in data set [1] it was “is not a substrate [-]”.
For the molecule `C[C@]12CCC(=O)C=C1CC[C@@H]1[C@@H]2[C@@H](O)C[C@@]2(C)[C@H]1CC[C@]2(O)C(=O)CO` [HYDROCORTISONE], the Activity result in data set [1] was “substrate [+]”.
